Reference: ChEMBL document CHEMBL1201862, “PubChem BioAssay data set” (2004)
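Five compound concentrations were applied to cells in 96-well plates for 48 hours; endpoints were derived by simple linear interpolation of the resulting dose-response curve. GI50 is the concentration that inhibits growth by half.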 Activity calls are given as the source filed them. No stated cut-off is given here; in the data, active = GI50 up to about 1.1 µM and inactive = higher.

Columns and labels:
Assay in all cases: inhibition of tumour cell growth, NCI panel, 48 h
SW-620 = system: SW-620
MDA-MB-231 = system: MDA-MB-231
PC-3 = system: PC-3
ACHN = system: ACHN
LOX IMVI = system: LOX IMVI
HOP-92 = system: HOP-92
SNB-75 = system: SNB-75
SK-OV-3 = system: SK-OV-3
SK-MEL-28 = system: SK-MEL-28
RXF 393 = system: RXF 393
MOLT-4 = system: MOLT-4
KM12 = system: KM12
M14 = system: M14
MDA-MB-435 = system: MDA-MB-435
EKVX = system: EKVX
SR = system: SR
K562 = system: K562
DU-145 = system: DU-145

| SMILES | GI50 (SW-620) | GI50 (MDA-MB-231) | GI50 (PC-3) | GI50 (ACHN) | GI50 (LOX IMVI) | GI50 (HOP-92) | GI50 (SNB-75) | GI50 (SK-OV-3) | GI50 (SK-MEL-28) | GI50 (RXF 393) | GI50 (MOLT-4) | GI50 (KM12) | GI50 (M14) | GI50 (MDA-MB-435) | GI50 (EKVX) | GI50 (SR) | GI50 (K562) | GI50 (DU-145) |
| --- | --- | --- | --- | --- | --- | --- | --- | --- | --- | --- | --- | --- | --- | --- | --- | --- | --- | --- |
| C[C@]1(O)CC[C@H]2[C@@H]3CCc4cc(O)ccc4[C@H]3CC[C@@]21C | 0.568 µM (active) | 7.23 µM (inactive) | 1.87 µM (inactive) | 16.6 µM (inactive) | 14.5 µM (inactive) | 6.95 µM (inactive) | > 100 µM (inactive) | 89.5 µM (inactive) | 34.8 µM (inactive) | 0.889 µM (active) | 0.664 µM (active) | 0.308 µM (active) | 1.18 µM (inactive) | 0.186 µM (active) | 1.32 µM (inactive) | 0.21 µM (active) |  |  |
| c1ccc(CSCCC(SCc2ccccc2)SCc2ccccc2)cc1 | > 10 µM (inactive) | > 10 µM (inactive) | > 10 µM (inactive) | > 10 µM (inactive) | > 10 µM (inactive) | 9.66 µM (inactive) | > 10 µM (inactive) | > 10 µM (inactive) | > 10 µM (inactive) | > 10 µM (inactive) | > 10 µM (inactive) | > 10 µM (inactive) | > 10 µM (inactive) |  | > 10 µM (inactive) | > 10 µM (inactive) | > 10 µM (inactive) | > 10 µM (inactive) |
| O=c1[nH]c(=O)n(C2OC(CO)C(O)C2O)c2c1CCCC2 (stereo not given) | > 100 µM (inactive) | > 100 µM (inactive) | > 100 µM (inactive) | > 100 µM (inactive) | > 100 µM (inactive) | > 100 µM (inactive) | > 100 µM (inactive) | > 100 µM (inactive) | > 100 µM (inactive) | > 100 µM (inactive) | > 100 µM (inactive) | > 100 µM (inactive) | > 100 µM (inactive) | > 100 µM (inactive) | > 100 µM (inactive) | > 100 µM (inactive) | > 100 µM (inactive) | > 100 µM (inactive) |
| CO/N=C(/C)c1cccc(Nc2nc3ccc(Cl)cc3c3[nH]c4ccccc4c23)c1 | 6.08 µM (inactive) | 13.4 µM (inactive) | 14 µM (inactive) | 3.74 µM (inactive) | 11.2 µM (inactive) | 3.65 µM (inactive) |  | 21.8 µM (inactive) |  | 1.52 µM (inactive) | 5.13 µM (inactive) | 3.97 µM (inactive) | 6.92 µM (inactive) | 8.57 µM (inactive) |  | 4.72 µM (inactive) | 3.13 µM (inactive) | 12.2 µM (inactive) |
| Cc1c(C)c2cc3c(=O)c(CCl)coc3c(C)c2oc1=O | > 100 µM (inactive) |  |  | > 100 µM (inactive) | > 100 µM (inactive) |  | 76.4 µM (inactive) | > 100 µM (inactive) | > 100 µM (inactive) | 57 µM (inactive) | > 100 µM (inactive) | > 100 µM (inactive) | > 100 µM (inactive) |  | > 100 µM (inactive) |  | > 100 µM (inactive) |  |
| C=C(COCO)C(C)=O | 3.3 µM (inactive) | 18.8 µM (inactive) | 19.1 µM (inactive) | 15.7 µM (inactive) | 15.9 µM (inactive) | 27 µM (inactive) | 16.3 µM (inactive) | 48.9 µM (inactive) | 16.8 µM (inactive) | 14.3 µM (inactive) | 2.66 µM (inactive) | > 40.3 µM (inactive) | 13 µM (inactive) | 14.2 µM (inactive) | 20.4 µM (inactive) |  | 3.45 µM (inactive) | 26 µM (inactive) |
